Laboratory results from patent US12714674B2, “JAK inhibitors having a specific particle size distribution” (Elanco US Inc., priority 2020, dated 2026).

How the values were obtained:
[1] = tested on: pruritus and skin lesions associated with allergic dermatitis in dogs; test: Four-arm, blinded, randomized, placebo-controlled study: control of pruritus and skin lesions associated with allergic dermatitis in dogs; type: in vivo, dog
Method: This study evaluated 2-(3-(4-(7H-pyrrolo[2,3-d]pyrimidin-4-yl)-1H-pyrazol-1-yl)-1-(cyclopropylsulfonyl)azetidin-3-yl)acetonitrile for control of pruritus and skin lesions associated with allergic dermatitis in dogs.
Oral tablets were prepared containing Form II 2-(3-(4-(7H-pyrrolo[2,3-d]pyrimidin-4-yl)-1H-pyrazol-1-yl)-1-(cyclopropylsulfonyl)azetidin-3-yl)acetonitrile, as follows. […] The tablet blends were pressed giving tablet cores containing 2.4 mg, 3.6 mg, 5.4 mg, and 16 mg of crystal Form II 2-(3-(4-(7H-pyrrolo[2,3-d]pyrimidin-4-yl)-1H-pyrazol-1-yl)-1-(cyclopropylsulfonyl)azetidin-3-yl)acetonitrile, as well as a placebo core. The tablet cores were coated with a mixture containing water and Opadry 20A150011 Red, thereby giving the final oral tablets for the study.
A four-arm, blinded, randomized, placebo-controlled study was conducted to assess the efficacy of daily administration of 2-(3-(4-(7H-pyrrolo[2,3-d]pyrimidin-4-yl)-1H-pyrazol-1-yl)-1-(cyclopropylsulfonyl)azetidin-3-yl)acetonitrile for control of pruritus and skin lesions associated with allergic dermatitis in dogs. Subjects were randomized to one of the following treatment arms: API-containing Tablets, 0.25-0.40 mg/kg Body Weight; API-containing Tablets, 0.40-0.60 mg/kg Body Weight; API-containing Tablets, 0.60-0.80 mg/kg Body Weight; and Placebo Tablets, 0.0 mg/kg Body Weight.
Dogs enrolled in the study received once daily treatment for approximately 28 days. Baseline data (clinical history, concomitant therapies, body weight, physical examinations and assessments of pruritus and atopic dermatitis) were collected for each dog at enrollment (Day 0). Additional health assessments, physical examinations, body weight measurements, assessments of pruritus and atopic dermatitis, and collection of blood samples for hematology, serum chemistry and pharmacokinetic (PK) analysis occurred consistent with standard testing protocols.
The primary effectiveness variable was treatment success. A treatment success was defined as a 2 unit or more reduction from baseline on the 10-unit owner-assessed pruritus Visual-Analog Scale (VAS) in at least 70% of the first 7 treatment days (i.e., in at least 5 of the first 7 treatment days). Dogs withdrawn from the study within the first 7 days of treatment due to a perceived lack of effectiveness were considered treatment failures.
Random effects were fit for site and site treatment with a variance component covariance structure and a compound symmetry covariance structure was fit for individual dogs.

[2] = Particle size distribution of micronized (jet-milled) material, laser diffraction; type: physicochemical
Method: Micronization was begun with a short “setup” run of approximately 300 grams was performed using a feed rate of 9.6 kg/hr. Venturi/mill pressures were 10 psi.
Particle size distribution method of 2-(3-(4-(7H-pyrrolo[2,3-d]pyrimidin-4-yl)-1H-pyrazol-1-yl)-1-(cyclopropylsulfonyl)azetidin-3-yl)acetonitrile.
Method: 150 to 175 mg 2-(3-(4-(7H-pyrrolo[2,3-d]pyrimidin-4-yl)-1H-pyrazol-1-yl)-1-(cyclopropylsulfonyl)azetidin-3-yl)acetonitrile sample are dispersed with 1 ml Tween20/water mixture (10/90 v/v %) to a paste in a beaker. The entire paste is then transferred to the measuring cuvette (beaker is rinsed out with water for complete sample transfer) and dispersed in 300 ml water. To homogenize the suspension in the measuring cuvette, the pump speed is set to 600 rpm. Before measurement the sample is stirred for 30 seconds. The optical concentration should be in the range of approximately 15 to 20% but the value depends strongly on the particle size distribution in the sample. If the 15 to 20% range is not reached either more sample paste must be added or the sample has to be diluted with water.
Equipment: a Helos laser diffractometer from Sympatec is used. Suspensions are measured using a Quixel cell. Dry measurement is done using the Rodos unit. Evaluation is done using the Paqxos software.

[3] = Example 50 setup run, feed rate 9.6 kg/hr, venturi/mill pressures 10 psi
[4] = PSD method of Example 51, Helos laser diffractometer, suspension in water/Tween20

| dv10 [2, 3] [µm] | dv50 [2, 3] [µm] | dv90 [2, 3] [µm] | dv10 [2, 4] [µm] | dv50 [2, 4] [µm] | dv90 [2, 4] [µm] | Compound | primary endpoint for treatment success ([1]; 0.6-0.8 mg/kg once daily) | Treatment Success LSMean (response rate) ([1]; 0.60-0.80 mg/kg once daily oral tablets containing Form II, success = 2 unit or more reduction on owner pruritus VAS in at least 5 of first 7 treatment days, generalized linear mixed model) | improvement in lesion scores ([1]; 0.6-0.8 mg/kg once daily, day 28) | improvement in pruritus ([1]; 0.6-0.8 mg/kg once daily, from first dose) |
| --- | --- | --- | --- | --- | --- | --- | --- | --- | --- | --- |
|  |  |  |  |  |  | N#CCC1(n2cc(-c3ncnc4[nH]ccc34)cn2)CN(S(=O)(=O)C2CC2)C1 [2-(3-(4-(7H-pyrrolo[2,3-d]pyrimidin-4-yl)-1H-pyrazol-1-yl)-1-(cyclopropylsulfonyl)azetidin-3-yl)acetonitrile] | achieved the primary endpoint for treatment success | 0.7188 | significant improvement in lesion scores at day 28 | significant improvements in pruritus from first dose |
| 4 | 20 | 53 | 4 | 20 | 51 | N#CCC1(n2cc(-c3ncnc4[nH]ccc34)cn2)CN(S(=O)(=O)C2CC2)C1 [sample “I”, 2-(3-(4-(7H-pyrrolo[2,3-d]pyrimidin-4-yl)-1H-pyrazol-1-yl)-1-(cyclopropylsulfonyl)azetidin-3-yl)acetonitrile] |  |  |  |  |
